Experimental findings from US6989390B2, “Amonafide salts” (priority 2002, dated 2006) are described below.

The nature of data set [1]: Minimum amount of water/ethanol (1.5/4 v/v) required to dissolve the crude salt at boil (recrystallization). The data set is classed as physicochemical. The source says:
For comparative purposes, between and among organic salts prepared in this manner and for the purposes of subsequent Example 3, Table 3, crude reaction products were recrystalized from water/ethanol (1.5/4 v/v per gram of salt) using the minimum amount of solvent to effect dissolution at boil.
In the case of succinic acid, the organic acid was dispensed as a half-equivalent in order to generate mitonafide hemisuccinate. […] Crude product that was isolated from the hydrogenation reaction mixture was analyzed for purity by high pressure liquid chromatography (HPLC) according to the conditions described in Table 1 above. The crude product was recrystallized from water/ethanol (1.5/4 v/v) using the minimum amount of solvent required to dissolve the crude product at boil, which is shown in the last column of Table 3 for each salt. The recrystallized product was then analyzed for purity by HPLC.
The purities of the crude salts were assessed by HPLC according to the conditions described in Table 1 above. The crude salts were then recrystallized from the minimum amount of water/ethanol (1.5/4 v/v) using the minimum amount of solvent required to dissolve the crude product at boil, which is shown in the last column of Table 3 for each salt. The resulting purified salts were again assessed for purity.
The hydrochloride and methanesulfonic acid salts of amonafide were prepared according to U.S. Pat. No. 5,420,137. Exemplary procedures are as follows: 3 g of crude amonafide free base, obtained as described in the previous two paragraphs, above, were dissolved under reflux in 60 ml of virtually anhydrous ethanol. Subsequently 1 ml of 35% (1 equivalent, estimated) strength hydrochloric acid was added dropwise while shaking vigorously. After cooling, the resulting crystals were filtered off and washed with 10 ml of anhydrous ethanol. The methanesulfonic acid salt was obtained using the same procedure, but replacing hydrochloric acid with 0.8 ml of methanesulfonic acid. The purity was assessed by HPLC using the conditions described in Table 1. The isolated products were then recrystallized from water/ethanol (1.5/4 v/v) using the minimum amounts of solvent required to dissolve the crude product at boil, which are shown for each salt in Table 3. The resulting purified salts were again assessed for purity.
The hydrochloride salt of amonafide was obtained by the method of Zee-Chang et al., U.S. Pat. No. 4,614,820. Exemplary conditions are as follows: a mixture of the hydrochloride salt of N-(dimethylaminoethyl)-3-nitro-1,8-naphthalimide and 10% palladium-on-charcoal in water was hydrogenated at room temperature under 40 lbs/in^2 of hydrogen for one hour. […] To the mixture was added 3 ml of concentrated hydrochloric acid. It was then filtered and the filtrate was evaporated to dryness under reduced pressure. The residue was triturated with 30 ml of absolute ethanol and filtered. The resulting solid was then washed with ether and dried. The purity was assessed by HPLC using the conditions described in Table 1. The crude product was then recrystallized from water/ethanol (1.5/4 v/v) using the minimum amount of solvent (40 mL/g) required to dissolve the crude product at boil. The resulting purified salts were again assessed for purity.

Data set [2] relates to H460 (Non-Small Cell Lung Cancer). The data set can be described thus: Cytotoxic activity in vitro, percent net growth (SRB/MTT). The following applies: H460, 48 hours. The format is cell-based. How it is done:
(§1) These cell lines are used by the National Cancer Institute: Developmental Therapeutics Branch in their preliminary screening process for antineoplastic agents. Subsequently, Amonafide Malate was tested against a larger panel of breast, lung and colon cell lines
(§2) Cells were grown in RPMI 1640 medium containing 5% fetal bovine serum and 2 mM L-glutamine. Dependent upon cell doubling time, between 5,000 and 40,000 cells were inoculated into 96 well microtiter plates in a volume of 100 uL per well. The plates were incubated at 37° C., 5% CO2, 95% air, and 100% relative humidity for 24 hours prior to the addition of the experimental drug. After the, 24 hour incubation, two (2) plates of each cell line were fixed in situ with trichloroacetic acid (TCA) to establish the cell population at time of drug addition (Tz).
(§3) Prior to use, the experimental drugs were solubilized in dimethyl sulfoxide at 400-fold the desired final maximum test concentration and frozen. At time of drug addition, an aliquot of frozen concentrate was thawed and diluted to twice the desired final maximum test concentration with complete medium containing 50 ug/ml gentamicin. An additional four (4) 10-fold or ½ log serial dilutions was made for a total of five (5) drug concentrations plus a control. An aliquot of 100 ul of each drug dilution was added to the appropriate well that already contains 100 ul of medium containing the cells. The plates were then incubated for 48 hours at 37° C., 5% CO2; 95% air and 100% relative humidity.
(§4) The number of viable cells was estimated by either a SRB or MTT calorimetric assays.
(§5) For SRB assay, cells were fixed in situ by the gentle addition of 50 ul cold (w/v) TCA (final concentration, 10% TCA) and incubated for 60 minutes at 4° C. The supernatant was discarded, plates washed five (5) times with tap water and air dried. Then Sulforhodamine B (SRB) solution (100 μl) at a 0.4% (w.v.) in 1% acetic acid was added to each well, and the plates incubated for 10 minutes at room temperature. Unbound dye was removed by washing five (5) times with 1% acetic acid and the plates were air dried. The bound stain was solubilized with 10 mM trizma base and the absorbance was read on an automated plate reader at a wavelength of 515 nm.
(§6) The MTT assay measures the ability of viable cells to reduce a tetrazolium salt (MTT) to an insoluble form, a formazan salt. For MTT analysis 20 μl of MTT solution (5 mg/ml in PBS) was added to each well containing cells. The plate was incubated at 37° C. for 5 hours. Media was removed with needle and syringe. 200 μl of DMSO was added to each well and pipetted up and down to dissolve crystals. Plate was placed into a 37° C. incubator for 5 minutes to dissolve air bubbles. Absorbance was read on an automated plate reader at a wavelength of 550 nm.
(§7) Percent net growth inhibition, as shown in FIGS. 2-7, was calculated using the seven absorbance measurements: absorbance by cells at time zero (Tz), absorbance by cells grown in the absence of drug (C), and absorbance of cells grown at the five drug concentrations (Ti). The following expression was used: % Net Growth=[(Ti−Tz)/(C−Tz)]×100 if Ti was greater than or equal to Tz. % Net Growth=[(Ti−Tz)/Tz]×100 if Ti was less than Tz.
(§8) Using the plot of Percent Net Growth as a function of drug concentration, lethality concentration “50%” (LC50), total growth inhibition (TGI) and growth inhibition “50%” (GI50) were determined as follows.

Another data set relates to MCF7 (Breast). The description is as above. The format is cell-based. The following applies: MCF7, 48 hours. The method, then:
as §1, §2, §3, §4, §5, §6, §7, §8

Another data set deals with SF268 (Glioma). The description is as above. The following applies: SF268, 48 hours. The data set is classed as cell-based. The method, then: as §1, §2, §3, §4, §5, §6, §7, §8
Setting [3] is: Percent Net Growth -50%, read-out: LC50 (the source's name).

As for `CN(C)CCN1C(=O)c2cccc3cc(N)cc(c23)C1=O.O=C(O)C[C@H](O)C(=O)O` [Amonafide Malate], the “Solvent” value in data set [1] (minimum water/ethanol (1.5/4 v/v) to dissolve crude product at boil, salt made by the method in column 2) amounted to 7.5 mL/g. Also, the “recrystallization volume for purification, malate compared with HCl” value in data set [1] (water/ethanol 1.5/4 v/v) amounted to 5 times smaller. For the same molecule, the concentration for total growth inhibition (TGI) in data set [2] (Percent Net Growth 0%) stood at 96 µM; in the data set with MCF7 (Breast) (Percent Net Growth 0%), 110 µM; in the data set with SF268 (Glioma) (Percent Net Growth 0%), 154 µM. Moreover, the GI50 was found to be 4.11 µM in data set [2] (Percent Net Growth 50%), 5.16 µM in the data set with MCF7 (Breast) (Percent Net Growth 50%) and 7.7 µM with SF268 (Glioma) (Percent Net Growth 50%). Further, the CC50 in data set [2] (setting [3]) turned out to be 170 µM; in the data set on MCF7 (Breast) (setting [3]), 662 µM.

The TGI is the concentration at which net growth stops. The low end stands for greater sensitivity of the cells, the high end for lower sensitivity of the cells. The term GI50 denotes the concentration at which growth is held to half of that of the control.
